In patent publication US5051132A, “Lyophilized preparation of 6-(3-dimethylaminopropionyl)forskolin” (priority 1989, dated 1991):

Test: Stability and solubility of 6-(3-dimethylaminopropionyl)forskolin in aqueous solution
Assay type: physicochemical

## C=CC1(C)CC(=O)C2(O)C(C)(O1)C(OC(C)=O)C(OC(=O)CCN(C)C)C1C(C)(C)CCC(O)C12C (centres unmarked) [6-(3-dimethylaminopropionyl)forskolin]
Aqueous solution
  stability in the state of aqueous solution: unstable in the state of aqueous solution
pH about 3 to about 6
  stability and solubility in the pH range of about 3 to about 6: keeps stable and exhibits a good solubility
